From PMC10035904, “Synthesis of novel sulphamethoxazole derivatives and exploration of their anticancer and antimicrobial properties” (PLOS ONE, 2023) come the findings set out here.

The MIC is the lowest concentration found to suppress growth. Low readings indicate a more susceptible organism, high ones a less susceptible organism. By EC50 is commonly meant the concentration that produces a half-maximal response.

Values after ≈ are worked out from the molar mass of the structure shown.

Common to all, as to assay type: cell-based
Test [1] relates to Proteus mirabilis ATCC 12459. The experiment in a line: Serial dilution on solid agar, P. mirabilis. Particulars: ATCC12459, solid Mueller-Hinton agar, 24 hours. The method, then: (§1) Antimicrobial activity of compound 16b on solid agar was tested using the same microbial cultures, and the same suspension preparation procedure, as described in above section. All procedures were done in aseptic conditions.
(§2) Mueller-Hinton agar was boiled and kept at to 37 °C during the whole procedure. Compound 16b solution was prepared in DMSO right before experiment. The Agar was mixed with compound solution at different ratios to make the final compound concentrations of 1 mM, 400 μM, 200 μM and 100 μM. Then 10 ml of prepared solution was poured into sterile Petri dishes (85 mm in diameter) and kept in aseptic conditions while the agar solidified. The agar with 0.5% of DMSO served as a negative control. With the help of loop standard microbial cultures by 0.1 ml were poured on the surface of prepared agar with investigative compound. Then Petri dishes were kept for 24 hours in thermostatic conditions.
(§3) The minimal dilution, i.e. the lowest concentration in μg/mL of the investigative and comparison compounds that inhibited visible growth of microorganisms was the minimal inhibitory concentration (MIC).

In test [2] the test system is Candida albicans ATCC 60193. The experiment in a line: Serial broth dilution in liquid medium, C. albicans. Particulars: ATCC60193, Mueller-Hinton broth, 48 hours, 50% reduction of microbial growth, n = 3. On the procedure: (§4) Antibacterial and antifungal susceptibility to the compound 16b was tested using a serial broth dilution technique in Mueller-Hinton broth II (BBL, Cockeysville, USA), as described elsewhere. All procedures were done in aseptic conditions. Standard bacterial and fungal cultures were used: Staphylococcus aureus ATCC 25923, Staphylococcus epidermidis ATCC 12228, Escherichia coli ATCC 25922, Enterococcus faecalis ATCC 29212, Klebsiella pneumoniae ATCC 33499, Pseudomonas aeruginosa ATCC 27853, Proteus mirabilis ATCC 12459, Bacillus cereus ATCC 8035, and Candida albicans ATCC 60193. Standard cultures of nonsporic bacteria S. aureus, S. epidermidis, E. coli, E. faecalis, K. pneumoniae, P. aeruginosa and P. mirabilis were cultivated for 20–24 hours at 37°C in Mueller-Hinton Agar (BBL, Cockeysville, USA). A bacterial suspension was prepared from cultivated bacterial cultures in physiological solution according to turbidity standard 0.5 McFarland. Standard culture of sporic bacteria B. cereus was cultivated for 7 days at 37°C in Mueller-Hinton II Agar. […] Then the absorbance was measured at 600 nm using a multi-detection microplate reader. […]
In general terms: Broth dilution looks for growth in wells or tubes with falling amounts of substance.

The test system of test [3] is Enterococcus faecalis ATCC 29212. The experiment in a line: Serial dilution on solid agar, E. faecalis. Particulars: ATCC29212, solid Mueller-Hinton agar, 24 hours. On the procedure:
as §1, §2, §3

Test [4] has as its system human clear cell renal cell carcinoma line (CaKi-1). Nature of the test: MTT cell viability assay, CaKi-1. Particulars: 72 hours of incubation, n = 3, read-out: EC50 against CaKi-1. The method, then: The human clear cell renal cell carcinoma line (CaKi-1) was obtained from American Type Culture Collection (ATCC, Manassas, VA). The human prostate carcinoma cell line PPC-1 was originally obtained from ATCC and kindly provided by Prof. Tambet Teesalu (University of Tartu, Estonia). Human foreskin fibroblasts (HF) CRL-4001 were originally obtained from ATCC and kindly provided by Prof. Helder Santos (University of Helsinki, Finland). Cells were cultured in Dulbecco’s Modified Eagle’s GlutaMAX medium (Gibco (Carlsbad, CA, USA) supplemented with 10,000 U/mL penicillin, 10 mg/mL streptomycin (Gibco), and 10% fetal bovine serum (Gibco). During cell passaging, Tryple Express reagent (Gibco) was used for cell detachment. Cell cultures were grown at 37°C in a humidified atmosphere containing 5% CO2. They were used until the passage of 20.
The effect of synthesized compounds on cell viability was studied using 3-(4,5-dimethylthiazol-2-yl)-2,5-diphenyltetrazolium bromide (MTT; Sigma-Aldrich Co., St Louis, MO, USA) assay, as described elsewhere. […] The absorbance was measured at 570 and 630 nm using a multi-detection microplate reader. The compound effect on cell viability was calculated using a formula (1): Relativecellviability%=A−A0/ANC−A0 (1) Where: […]

Test [5] deals with Bacillus cereus ATCC 8035. The experiment in a line: Serial dilution on solid agar, B. cereus. Particulars: ATCC8035, solid Mueller-Hinton agar, 24 hours. The method, then: as §1, §2, §3
Test [6] concerns Candida albicans ATCC 60193. The experiment in a line: Serial dilution on solid agar, C. albicans. Particulars: ATCC60193, solid Mueller-Hinton agar, 24 hours. The method, then:
as §1, §2, §3

Test [7] deals with Staphylococcus epidermidis ATCC 12228. Nature of the test: Serial dilution on solid agar, S. epidermidis. Particulars: ATCC12228, solid Mueller-Hinton agar, 24 hours. The method, then:
as §1, §2, §3

Test [8] concerns Escherichia coli ATCC 25922. The experiment in a line: Serial broth dilution in liquid medium, E. coli. Particulars: ATCC25922, Mueller-Hinton broth, 24 hours, n = 3. The method, then:
as §4

Test [9] has as its system Staphylococcus epidermidis ATCC 12228. Nature of the test: Serial broth dilution in liquid medium, S. epidermidis. Particulars: Mueller-Hinton broth, 24 hours; result in words. On the procedure: as §4
Test [10] relates to Enterococcus faecalis ATCC 29212. The experiment in a line: Serial broth dilution in liquid medium, E. faecalis. Particulars: ATCC29212, Mueller-Hinton broth, 24 hours, 50% reduction of microbial growth, n = 3. On the procedure:
as §4

For `Cc1cc(NS(=O)(=O)c2ccc(NCCC(=O)NN=Cc3ccc([N+](=O)[O-])o3)cc2)no1` [Compound 16b, N-(5-methylisoxazol-3-yl)-4-((3-(2-((5-nitrofuran-2-yl)methylene)hydrazineyl)-3-oxopropyl)amino)-benzenesulfonamide], the MIC was found to be 1000 µM (≈ 462 µg/mL) in [1]; 1000 µM (≈ 462 µg/mL) in test [3]; 400 µM (≈ 185 µg/mL) in test [5]; 400 µM (≈ 185 µg/mL) in test [6]; 100 µM (≈ 46.2 µg/mL) in test [7]. In addition, the EC50 was 85.5 ± 7.1 µM in test [2], 12.4 ± 1.6 µM in [4], over 100 µM in [8] and 90 ± 6 µM in [10]. Besides, the “sensitivity of S. epidermidis in liquid medium” value in [9] was “most sensitive”.
